Assay results reported in PubChem BioAssay (NCI).
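Test compounds were applied to cells in 96-well plates for 48 hours at 5 doses. GI50 marks 50% less growth. TGI: concentration producing complete growth inhibition.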

Assays:
Experiment in all cases: DTP human tumour cell line panel, 48 h
786-0 renal = tested on: 786-0 renal
A498 renal = tested on: A498 renal
A549 NSCLC = tested on: A549 NSCLC
ACHN renal = tested on: ACHN renal
CAKI-1 renal = tested on: CAKI-1 renal
CCRF-CEM leukemia = tested on: CCRF-CEM leukemia
COLO 205 colon = tested on: COLO 205 colon
DLD-1 colon = tested on: DLD-1 colon
DMS 114 small cell lung = tested on: DMS 114 small cell lung
DMS 273 small cell lung = tested on: DMS 273 small cell lung
EKVX NSCLC = tested on: EKVX NSCLC
HCC-2998 colon = tested on: HCC-2998 colon
HCT-116 colon = tested on: HCT-116 colon
HCT-15 colon = tested on: HCT-15 colon
HL-60(TB) leukemia = tested on: HL-60(TB) leukemia
HOP-18 NSCLC = tested on: HOP-18 NSCLC
HOP-62 NSCLC = tested on: HOP-62 NSCLC
HOP-92 NSCLC = tested on: HOP-92 NSCLC
HT29 colon = tested on: HT29 colon
IGROV1 ovarian = tested on: IGROV1 ovarian
K-562 leukemia = tested on: K-562 leukemia
KM12 colon = tested on: KM12 colon
KM20L2 colon = tested on: KM20L2 colon
LOX IMVI melanoma = tested on: LOX IMVI melanoma
LXFL 529 NSCLC = tested on: LXFL 529 NSCLC
M14 melanoma = tested on: M14 melanoma
M19-MEL melanoma = tested on: M19-MEL melanoma
MALME-3M melanoma = tested on: MALME-3M melanoma
MOLT-4 leukemia = tested on: MOLT-4 leukemia
NCI-H226 lung = tested on: NCI-H226 lung
NCI-H23 lung = tested on: NCI-H23 lung
NCI-H460 lung = tested on: NCI-H460 lung
NCI-H522 lung = tested on: NCI-H522 lung
OVCAR-3 ovarian = tested on: OVCAR-3 ovarian
OVCAR-4 ovarian = tested on: OVCAR-4 ovarian
OVCAR-5 ovarian = tested on: OVCAR-5 ovarian
OVCAR-8 ovarian = tested on: OVCAR-8 ovarian
RPMI-8226 leukemia = tested on: RPMI-8226 leukemia
RXF 393 renal = tested on: RXF 393 renal
SF-268 CNS = tested on: SF-268 CNS
SF-295 CNS = tested on: SF-295 CNS
SF-539 CNS = tested on: SF-539 CNS
SK-MEL-2 melanoma = tested on: SK-MEL-2 melanoma
SK-MEL-28 melanoma = tested on: SK-MEL-28 melanoma
SK-MEL-5 melanoma = tested on: SK-MEL-5 melanoma
SK-OV-3 ovarian = tested on: SK-OV-3 ovarian
SN12C renal = tested on: SN12C renal
SNB-19 CNS = tested on: SNB-19 CNS
SNB-75 CNS = tested on: SNB-75 CNS
SNB-78 CNS = tested on: SNB-78 CNS
SR leukemia = tested on: SR leukemia
SW-620 colon = tested on: SW-620 colon
TK-10 renal = tested on: TK-10 renal
U251 CNS = tested on: U251 CNS
UACC-257 melanoma = tested on: UACC-257 melanoma
UACC-62 melanoma = tested on: UACC-62 melanoma
UO-31 renal = tested on: UO-31 renal

With `Cc1ccc(NC(=O)CC2SC(=Nc3ccc(Cl)cc3)NC2=O)cc1C` (stereo not drawn) the TGI (786-0 renal) was 32 µM, the TGI (A498 renal) was 43.2 µM and the TGI (A549 NSCLC) was 34.3 µM. For the same compound, the TGI (ACHN renal) was 29.6 µM, the TGI (CAKI-1 renal) was 35.9 µM and the TGI (CCRF-CEM leukemia) was 11 µM. The TGI (COLO 205 colon) was 32.4 µM, the TGI (DLD-1 colon) was 38.5 µM and the TGI (DMS 114 small cell lung) was 42.1 µM. The TGI (DMS 273 small cell lung) was 34.3 µM, the TGI (EKVX NSCLC) was 31.4 µM and the TGI (HCC-2998 colon) was 33.6 µM. The TGI (HCT-116 colon) was 32.9 µM, the TGI (HCT-15 colon) was 29.3 µM and the TGI (HL-60(TB) leukemia) was 9.12 µM. For the same compound, the TGI (HOP-18 NSCLC) was 32.5 µM, the TGI (HOP-62 NSCLC) was greater than 100 µM and the TGI (HOP-92 NSCLC) was 27.5 µM. For the same compound, the TGI (HT29 colon) was 33.2 µM, the TGI (IGROV1 ovarian) was greater than 60.8 µM and the TGI (K-562 leukemia) was greater than 58.5 µM. For the same compound, the TGI (KM12 colon) was 40.3 µM, the TGI (KM20L2 colon) was 33.5 µM and the TGI (LOX IMVI melanoma) was 33.7 µM. It also gave a TGI (LXFL 529 NSCLC) of 34 µM, a TGI (M14 melanoma) of 31.2 µM and a TGI (M19-MEL melanoma) of 36.1 µM. The TGI (MALME-3M melanoma) was 33.2 µM, the TGI (MOLT-4 leukemia) was 5.28 µM and the TGI (NCI-H226 lung) was greater than 64.3 µM. The TGI (NCI-H23 lung) was 35.6 µM, the TGI (NCI-H460 lung) was 18.2 µM and the TGI (NCI-H522 lung) was 18.4 µM. For the same compound, the TGI (OVCAR-3 ovarian) was 33.2 µM, the TGI (OVCAR-4 ovarian) was 35.6 µM and the TGI (OVCAR-5 ovarian) was 33.1 µM. The TGI (OVCAR-8 ovarian) was 32.8 µM, the TGI (RPMI-8226 leukemia) was 21.2 µM and the TGI (RXF 393 renal) was 32 µM. It also gave a TGI (SF-268 CNS) of 33.4 µM, a TGI (SF-295 CNS) greater than 73.3 µM and a TGI (SF-539 CNS) of 35.4 µM. For the same compound, the TGI (SK-MEL-2 melanoma) was 17.9 µM, the TGI (SK-MEL-28 melanoma) was 33.9 µM and the TGI (SK-MEL-5 melanoma) was 36.6 µM. The TGI (SK-OV-3 ovarian) was greater than 66.1 µM, the TGI (SN12C renal) was 31.9 µM and the TGI (SNB-19 CNS) was greater than 100 µM. The TGI (SNB-75 CNS) was 33.2 µM, the TGI (SNB-78 CNS) was 44.3 µM and the TGI (SR leukemia) was 29.4 µM. It also gave a TGI (SW-620 colon) of 18.5 µM, a TGI (TK-10 renal) of 31.1 µM and a TGI (U251 CNS) of 32.7 µM. The TGI (UACC-257 melanoma) was 29.4 µM, the TGI (UACC-62 melanoma) was 32.6 µM and the TGI (UO-31 renal) was 32.6 µM.

`COc1cccc(/C=N/[N-]C(N)=O)c1[O-].[Co+2].[OH3+].c1ccncc1` was tested, and the TGI (786-0 renal) was greater than 100 µM, the TGI (A549 NSCLC) was greater than 100 µM and the TGI (ACHN renal) was greater than 100 µM. For the same compound, the TGI (CAKI-1 renal) was greater than 100 µM, the TGI (CCRF-CEM leukemia) was greater than 100 µM and the TGI (COLO 205 colon) was greater than 100 µM. For the same compound, the TGI (EKVX NSCLC) was greater than 100 µM, the TGI (HCC-2998 colon) was greater than 100 µM and the TGI (HCT-116 colon) was greater than 100 µM. It also gave a TGI (HCT-15 colon) greater than 100 µM, a GI50 (HL-60(TB) leukemia) of 30.8 µM and a TGI (HL-60(TB) leukemia) greater than 100 µM. The TGI (HOP-62 NSCLC) was greater than 100 µM, the TGI (HOP-92 NSCLC) was greater than 100 µM and the TGI (HT29 colon) was greater than 100 µM. For the same compound, the TGI (IGROV1 ovarian) was greater than 100 µM, the TGI (KM12 colon) was greater than 100 µM and the TGI (KM20L2 colon) was greater than 100 µM. For the same compound, the TGI (LOX IMVI melanoma) was greater than 100 µM, the TGI (M14 melanoma) was greater than 100 µM and the TGI (MALME-3M melanoma) was greater than 100 µM. For the same compound, the TGI (MOLT-4 leukemia) was greater than 100 µM, the TGI (NCI-H226 lung) was greater than 100 µM and the TGI (NCI-H23 lung) was greater than 100 µM. It also gave a TGI (NCI-H460 lung) greater than 100 µM, a TGI (NCI-H522 lung) greater than 100 µM and a TGI (OVCAR-3 ovarian) greater than 100 µM. The TGI (OVCAR-4 ovarian) was greater than 100 µM, the TGI (OVCAR-5 ovarian) was greater than 100 µM and the TGI (OVCAR-8 ovarian) was greater than 100 µM. The TGI (RPMI-8226 leukemia) was greater than 100 µM, the TGI (RXF 393 renal) was greater than 100 µM and the TGI (SF-268 CNS) was greater than 100 µM. It also gave a TGI (SF-295 CNS) greater than 100 µM, a TGI (SF-539 CNS) greater than 100 µM and a TGI (SK-MEL-2 melanoma) greater than 100 µM. For the same compound, the TGI (SK-MEL-28 melanoma) was greater than 100 µM, the TGI (SK-MEL-5 melanoma) was greater than 100 µM and the TGI (SK-OV-3 ovarian) was greater than 100 µM. The TGI (SN12C renal) was greater than 100 µM, the TGI (SNB-75 CNS) was greater than 100 µM and the TGI (SW-620 colon) was greater than 100 µM. It also gave a TGI (U251 CNS) greater than 100 µM, a TGI (UACC-257 melanoma) greater than 100 µM and a TGI (UACC-62 melanoma) greater than 100 µM. The TGI (UO-31 renal) was greater than 100 µM.
